Assay type in all cases: cell-based
The test system of one assay is Ramos cells. The assay is described as follows: In vitro cytotoxicity, Cell Titer-Glo, 5 d. The conditions noted are these: Homo sapiens, 120 h, 5 d incubation, read-out: IC50 against Ramos cells. The method, then:
(§1) The CD22-positive B-cell lymphoma cell lines, Ramos and WSU-DLCL2, were obtained from the ATCC and DSMZ cell banks, respectively. The cells were maintained in RPMI-1640 medium (Cellgro, Manassas, Va.) supplemented with 10% fetal bovine serum (Invitrogen, Grand Island, N.Y.) and Glutamax (Invitrogen). 24 h prior to plating, cells were passaged to ensure log-phase growth. On the day of plating, 5000 cells/well were seeded onto 96-well plates in 90 μL normal growth medium supplemented with […] and 10 µg/mL streptomycin (Cellgro). Cells were treated at various concentrations with 10 μL of diluted analytes, and the plates were incubated at 37° C. in an atmosphere of 5% CO2. After 5 d, 100 μL/well of Cell Titer-Glo reagent (Promega, Madison, Wis.) was added, and luminescence was measured using a Molecular Devices SpectraMax M5 plate reader. GraphPad Prism software was used for data analysis.
On the technique in general: In ATP-based viability assays light output follows the ATP content of the culture.

In another assay the test system is WSU-DLCL2 cells. The assay is described as follows: In vitro cytotoxicity, Cell Titer-Glo, 5 d. The conditions noted are these: Homo sapiens, WSUDLCL2, 120 h; 5 d incubation; read-out: IC50 against WSU-DLCL2 cells. The method, then: as §1
The subject of assay [1] is WSU-DLCL2 cells engineered to express MDR1 (MDR1+). The assay can be described thus: In vitro cytotoxicity assay on MDR1-expressing cells. The method, then: (§2) MDR1 (ABCB1) cDNA was obtained from Sino Biological and cloned into a pEF plasmid with a hygromycin selection marker. An AMAXA Nucleofector™ instrument was used to electroporate Ramos (ATCC CRL-1923) and WSU-DLCL2 (DSMZ ACC 575) cells according to the manufacturer's instructions. After selection with hygromycin (Invitrogen 10687010), the pools were enriched with paclitaxel treatment (25 nM for up to 10 days) to further select cells with functional MDR1. The resulting cells were maintained under hygromycin selection in RPMI (Gibco 21870-092) supplemented with 10% fetal bovine serum (FBS) and 1× GlutaMax (Gibco 35050-079).
(§3) Cell lines were plated in 96-well plates (Costar 3610) at a density of 5×10^4 cells/well in 100 μL of growth media and allowed to rest for 5 h. Serial dilution of test samples was performed in RPMI at 6× the final concentration and 20 μL was added to the cells. After incubation at 37° C. with 5% CO2 for 5 days, viability was measured using a Promega CellTiter 96® AQueous One Solution Cell Proliferation Assay (G3581) according to the manufacturer's instructions. GI50 curves were calculated in GraphPad Prism using the ADC's drug-to-antibody ratio (DAR) value to normalize the dose to the payload concentration.

Assay [2] concerns Ramos cells engineered to express MDR1 (MDR1+). Described as above. The conditions noted are these: versus wild-type cells. The method, then:
as §2, §3

The IC50 is the point on the concentration scale where inhibition reaches its midpoint. As to `COc1cc2cc(c1Cl)N(C)C(=O)C[C@H](OC(=O)[C@H](C)N(C)C(C)=O)[C@]1(C)O[C@H]1[C@H](C)[C@@H]1C[C@@](O)(NC(=O)O1)[C@H](OC)/C=C/C=C(\C)C2` [free maytansine, maytansine], the IC50 with Ramos cells came out at 0.04 nM; in the assay on WSU-DLCL2 cells, 0.086 nM. Besides, in assay [1] (cyclosporin cotreatment), the “potency in MDR1+ WSU-DLCL2 cells on cotreatment with cyclosporin (MDR1 inhibitor)” value is recorded as “restored the original potency”. For the same molecule, the “loss of efficacy in MDR1+ WSU-DLCL2 cells” value in assay [1] (versus wild-type cells) is roughly 10 fold. Further, in assay [2], the “loss of efficacy in MDR1+ Ramos cells” value is reported as roughly 10 fold.
